Measurements taken from ChEMBL document CHEMBL3885881, “DrugMatrix”.

Species: Rattus norvegicus
Assay: DrugMatrix - Regimen: Daily Repeat
Assay type: toxicity, organism-based, Sprague-Dawley
Parameters: regimen Daily Repeat, gender Male, age 6-8 weeks
Conditions: in vivo, iv, […], vehicle 100 % SALINE; for MONOCYTE / NEUTROPHIL / NUCLEATED RED BLOOD CELLS / ABSOLUTE BASOPHIL / ABSOLUTE EOSINOPHIL / ABSOLUTE LYMPHOCYTE / ABSOLUTE MONOCYTE / ABSOLUTE SEGMENTED NEUTROPHIL / BASOPHIL / EOSINOPHIL / ERYTHROCYTE COUNT / HEMATOCRIT / HEMOGLOBIN / LEUKOCYTE COUNT / LYMPHOCYTE / MEAN CORPUSCULAR HEMOGLOBIN / MEAN CORPUSCULAR HEMOGLOBIN CONCENTRATION / MEAN CORPUSCULAR VOLUME: tissue Blood; for ALANINE AMINOTRANSFERASE / ALKALINE PHOSPHATASE / ASPARTATE AMINOTRANSFERASE / BLOOD UREA NITROGEN / CARBON DIOXIDE / CHOLESTEROL / CREATINE PHOSPHOKINASE / CREATININE / GLUCOSE / LACTATE DEHYDROGENASE / LIPASE / SODIUM / TOTAL BILIRUBIN / TOTAL PROTEIN / URIC ACID: tissue Plasma
[1] = 72 h, dose 2.7 mg/Kg, dose level High, time 3 day
[2] = 72 h, dose 0.27 mg/Kg, dose level Low, time 3 day
[3] = 120 h, dose 0.27 mg/Kg, dose level Low, time 5 day
[4] = 120 h, dose 2.7 mg/Kg, dose level High, time 5 day

COc1cccc2c1C(=O)c1c(O)c3c(c(O)c1C2=O)C[C@@](O)(C(=O)CO)C[C@@H]3O[C@H]1C[C@H](N)[C@@H](O)[C@H](C)O1 [EPIRUBICIN]
MONOCYTE [1]: 0.67%
NEUTROPHIL [1]: 8.67%
NUCLEATED RED BLOOD CELLS [1]: 0 /100WBC
ALANINE AMINOTRANSFERASE [2]: 37 u/L
ALKALINE PHOSPHATASE [2]: 440.33 u/L
ASPARTATE AMINOTRANSFERASE [2]: 76.33 u/L
BLOOD UREA NITROGEN [2]: 17 mg/dL
CARBON DIOXIDE [2]: 25 mmol/L
CHOLESTEROL [2]: 79.67 mg/dL
CREATINE PHOSPHOKINASE [2]: 317.67 u/L
CREATININE [2]: 0.15 mg/dL
GLUCOSE [2]: 161.33 mg/dL
LACTATE DEHYDROGENASE [2]: 433 u/L
LIPASE [2]: 9.33 u/L
SODIUM [2]: 143.3 MEQ/L
TOTAL BILIRUBIN [2]: 0.2 mg/dL
TOTAL PROTEIN [2]: 5.67 G/DL
URIC ACID [2]: 1.5 mg/dL
ALANINE AMINOTRANSFERASE [1]: 33 u/L
ALKALINE PHOSPHATASE [1]: 297.33 u/L
ASPARTATE AMINOTRANSFERASE [1]: 83.67 u/L
BLOOD UREA NITROGEN [1]: 13 mg/dL
CARBON DIOXIDE [1]: 26.33 mmol/L
CHOLESTEROL [1]: 96.33 mg/dL
CREATINE PHOSPHOKINASE [1]: 442.33 u/L
CREATININE [1]: 0.12 mg/dL
GLUCOSE [1]: 146.33 mg/dL
LACTATE DEHYDROGENASE [1]: 682.67 u/L
LIPASE [1]: 10 u/L
SODIUM [1]: 143.33 MEQ/L
TOTAL BILIRUBIN [1]: 0.0667 mg/dL
TOTAL PROTEIN [1]: 5.73 G/DL
URIC ACID [1]: 1.43 mg/dL
ABSOLUTE BASOPHIL [3]: 0 CELLS/uL
ABSOLUTE EOSINOPHIL [3]: 0 CELLS/uL
ABSOLUTE LYMPHOCYTE [3]: 12433.67 CELLS/uL
ABSOLUTE MONOCYTE [3]: 229 CELLS/uL
ABSOLUTE SEGMENTED NEUTROPHIL [3]: 504 CELLS/uL
BASOPHIL [3]: 0%
EOSINOPHIL [3]: 0%
ERYTHROCYTE COUNT [3]: 5.91 x10E6/uL
HEMATOCRIT [3]: 37.27%
HEMOGLOBIN [3]: 14.33 G/DL
LEUKOCYTE COUNT [3]: 13.17 x10E3/uL
LYMPHOCYTE [3]: 94.33%
MEAN CORPUSCULAR HEMOGLOBIN [3]: 24.27 pg
MEAN CORPUSCULAR HEMOGLOBIN CONCENTRATION [3]: 38.5 G/DL
MEAN CORPUSCULAR VOLUME [3]: 63.07 fL
MONOCYTE [3]: 1.67%
NEUTROPHIL [3]: 4%
NUCLEATED RED BLOOD CELLS [3]: 0 /100WBC
ABSOLUTE BASOPHIL [4]: 0 CELLS/uL
ABSOLUTE EOSINOPHIL [4]: 0 CELLS/uL
ABSOLUTE LYMPHOCYTE [4]: 1316 CELLS/uL
ABSOLUTE MONOCYTE [4]: 12 CELLS/uL
ABSOLUTE SEGMENTED NEUTROPHIL [4]: 72 CELLS/uL
BASOPHIL [4]: 0%
EOSINOPHIL [4]: 0%
ERYTHROCYTE COUNT [4]: 6.07 x10E6/uL
HEMATOCRIT [4]: 37.4%
HEMOGLOBIN [4]: 15.17 G/DL
LEUKOCYTE COUNT [4]: 1.4 x10E3/uL
LYMPHOCYTE [4]: 94%
MEAN CORPUSCULAR HEMOGLOBIN [4]: 25.13 pg
MEAN CORPUSCULAR HEMOGLOBIN CONCENTRATION [4]: 40.6 G/DL
MEAN CORPUSCULAR VOLUME [4]: 61.83 fL
MONOCYTE [4]: 1%
NEUTROPHIL [4]: 5%
NUCLEATED RED BLOOD CELLS [4]: 0 /100WBC
ALANINE AMINOTRANSFERASE [3]: 57.67 u/L
ALKALINE PHOSPHATASE [3]: 390.33 u/L
ASPARTATE AMINOTRANSFERASE [3]: 107.33 u/L
BLOOD UREA NITROGEN [3]: 16.67 mg/dL
CARBON DIOXIDE [3]: 25 mmol/L
CHOLESTEROL [3]: 75 mg/dL
CREATINE PHOSPHOKINASE [3]: 510.67 u/L
CREATININE [3]: 0.16 mg/dL
GLUCOSE [3]: 152 mg/dL
LACTATE DEHYDROGENASE [3]: 825.67 u/L
LIPASE [3]: 9 u/L
SODIUM [3]: 144.37 MEQ/L
TOTAL BILIRUBIN [3]: 0.17 mg/dL
TOTAL PROTEIN [3]: 5.9 G/DL
URIC ACID [3]: 1.63 mg/dL
ALANINE AMINOTRANSFERASE [4]: 29 u/L
ALKALINE PHOSPHATASE [4]: 172 u/L
ASPARTATE AMINOTRANSFERASE [4]: 79.33 u/L
BLOOD UREA NITROGEN [4]: 20.67 mg/dL
CARBON DIOXIDE [4]: 28 mmol/L
CHOLESTEROL [4]: 93 mg/dL
CREATINE PHOSPHOKINASE [4]: 725.67 u/L
CREATININE [4]: 0.12 mg/dL
GLUCOSE [4]: 151.33 mg/dL
LACTATE DEHYDROGENASE [4]: 374.33 u/L
LIPASE [4]: 8.67 u/L
SODIUM [4]: 141.7 MEQ/L
TOTAL BILIRUBIN [4]: 0.0667 mg/dL
TOTAL PROTEIN [4]: 5.67 G/DL
URIC ACID [4]: 1.37 mg/dL
